According to patent US10865208B2, “ATG7 inhibitors and the uses thereof” (Millennium Pharmaceuticals, Inc., priority 2016, dated 2020):

Target: recombinant human His-ATG7 enzyme (Homo sapiens (Human), UniProt O95352)
Assay: ATG7 Enzyme Assay (HTRF/FRET, ATG3-GST and Flag-Gabarap)
Assay type: biochemical
Details: for inhibition at 0.111 µM: Concentration 0.111 μM; for inhibition at 0.123 µM: Concentration 0.123 μM
Procedure: Example 97: ATG7 Enzyme Assay
The total volume of the ATG7 enzymatic assay is 50 μL and contains 50 mM HEPES Hemisodium (pH 7.5), 0.05% BSA, 0.01% Tween-20, 25 mM NaCl, 5 mM MgCl2, 10 μM ATP, 250 μM GSH, 5 nM ATG3-GST, 5 nM Flag-Gabarap, 100 μM TCEP and 0.15 nM recombinant human His-ATG7 enzyme. The enzymatic reaction mixture, with and without inhibitor, was incubated at 24° C. for 105 min in a 384-well plate before termination with […] of Stop/Detection buffer (0.1M HEPES Hemisodium pH 7.5, 0.05% Tween20, 20 mM EDTA, 410 mM KF, 0.53 nM Europium-Cryptate labeled monoclonal anti-Flag M2 Antibody (CisBio International) and 8.125 μg/ml PHYCOLINK goat anti-GST allophycocyanin (XL-APC) antibody (Prozyme)). After incubation for 2 hours at 24° C., quantification of FRET is performed on the Pherostar™ (BMG Labtech). Percentage inhibition values at a single concentration or enzyme inhibition (IC50) values are determined from those curves. One skilled in the art will appreciate that the values generated either as percentage inhibition at a single concentration or IC50 values are subject to experimental variation.

Sequence of recombinant human His-ATG7 enzyme (O95352 whole entry): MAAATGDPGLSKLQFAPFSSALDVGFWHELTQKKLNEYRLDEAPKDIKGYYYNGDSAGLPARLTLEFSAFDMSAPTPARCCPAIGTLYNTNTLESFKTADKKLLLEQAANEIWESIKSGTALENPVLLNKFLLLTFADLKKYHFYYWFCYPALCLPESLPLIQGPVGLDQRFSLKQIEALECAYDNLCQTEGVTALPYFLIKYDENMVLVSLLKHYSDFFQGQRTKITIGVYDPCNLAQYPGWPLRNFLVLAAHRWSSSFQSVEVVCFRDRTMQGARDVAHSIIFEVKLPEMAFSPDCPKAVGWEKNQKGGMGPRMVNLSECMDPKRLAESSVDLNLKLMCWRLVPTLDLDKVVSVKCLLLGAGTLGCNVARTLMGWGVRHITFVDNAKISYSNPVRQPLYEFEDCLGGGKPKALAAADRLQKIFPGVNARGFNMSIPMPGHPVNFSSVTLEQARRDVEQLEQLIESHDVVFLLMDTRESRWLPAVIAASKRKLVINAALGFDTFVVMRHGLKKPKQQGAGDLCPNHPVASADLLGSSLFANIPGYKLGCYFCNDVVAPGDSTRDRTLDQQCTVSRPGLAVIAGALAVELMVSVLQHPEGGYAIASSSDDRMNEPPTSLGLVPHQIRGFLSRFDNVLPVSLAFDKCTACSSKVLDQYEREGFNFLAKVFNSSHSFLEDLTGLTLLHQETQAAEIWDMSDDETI

## Nc1ncnc2c1c(Sc1ccc(C(F)(F)F)cn1)nn2[C@@H]1O[C@H](COS(N)(=O)=O)[C@@H](O)[C@@H]1F [Compound I-143, [(2R,3R,4S,5R)-5-(4-amino-3-{[5-(trifluoromethyl)pyridin-2-yl]sulfanyl}-1H-pyrazolo[3,4-d]pyrimidin-1-yl)-4-fluoro-3-hydroxytetrahydrofuran-2-yl]methyl sulfamate]
  IC50: 50 to 100 nM
read-out: Percent Inhibition
  inhibition at 0.111 µM: 68%

## CCSc1nn([C@H]2C[C@H](O)[C@@H](COS(N)(=O)=O)O2)c2ncnc(N)c12 [Compound I-172, {(2R,3S,5R)-5-[4-amino-3-(ethylsulfanyl)-1H-pyrazolo[3,4-d]pyrimidin-1-yl]-3-hydroxytetrahydrofuran-2-yl}methyl Sulfamate]
  IC50: 50 to 100 nM
read-out: Percent Inhibition
  inhibition at 0.111 µM: 68%

## Nc1ncnc2c1c(Sc1cc3c(cc1F)CCC3)nn2[C@H]1C[C@H](O)[C@@H](COS(N)(=O)=O)O1 [Compound I-203, [(2R,3S,5R)-5-{4-amino-3-[(6-fluoro-2,3-dihydro-1H-inden-5-yl)sulfanyl]-1H-pyrazolo[3,4-d]pyrimidin-1-yl}-3-hydroxytetrahydrofuran-2-yl]methyl Sulfamate]
  IC50: 50 to 100 nM
read-out: Percent Inhibition
  inhibition at 0.111 µM: 58%

## Nc1ncnc2c1c(SCCO)nn2[C@@H]1O[C@H](COS(N)(=O)=O)[C@@H](O)[C@H]1O [Compound I-46, [(2R,3S,4R,5R)-5-{4-amino-3-[(2-hydroxyethyl)sulfanyl]-1H-pyrazolo[3,4-d]pyrimidin-1-yl}-3,4-dihydroxytetrahydrofuran-2-yl]methyl sulfamate]
  IC50: < 20 nM
read-out: Percent Inhibition
  inhibition at 0.123 µM: 88%

## CC(C)CSc1nn([C@@H]2O[C@H](COS(N)(=O)=O)[C@@H](O)[C@H]2O)c2ncnc(N)c12 [Compound I-77, {(2R,3S,4R,5R)-5-[4-amino-3-(isobutylsulfanyl)-1H-pyrazolo[3,4-d]pyrimidin-1-yl]-3,4-dihydroxytetrahydrofuran-2-yl}methyl sulfamate]
  IC50: 20 to 50 nM
read-out: Percent Inhibition
  inhibition at 0.123 µM: 85%

## COc1ccc(F)c(Sc2nn([C@H]3C[C@H](O)[C@@H](COS(N)(=O)=O)O3)c3ncnc(N)c23)c1 [Compound I-173, [(2R,3S,5R)-5-{4-amino-3-[(2-fluoro-5-methoxyphenyl)sulfanyl]-1H-pyrazolo[3,4-d]pyrimidin-1-yl}-3-hydroxytetrahydrofuran-2-yl]methyl sulfamate]
  IC50: 20 to 50 nM
read-out: Percent Inhibition
  inhibition at 0.111 µM: 81%

## CC(C)(O)CSc1nn([C@@H]2O[C@H](COS(N)(=O)=O)[C@@H](O)[C@H]2O)c2ncnc(N)c12 [Compound I-28, [(2R,3S,4R,5R)-5-{4-amino-3-[(2-hydroxy-2-methylpropyl)sulfanyl]-1H-pyrazolo[3,4-d]pyrimidin-1-yl}-3,4-dihydroxytetrahydrofuran-2-yl]methyl sulfamate]
  IC50: 50 to 100 nM
read-out: Percent Inhibition
  inhibition at 0.123 µM: 71%

## Nc1ncnc2c1c(OC(F)F)nn2[C@H]1C[C@H](O)[C@@H](COS(N)(=O)=O)O1 [Compound I-195, {(2R,3S,5R)-5-[4-amino-3-(difluoromethoxy)-1H-pyrazolo[3,4-d]pyrimidin-1-yl]-3-hydroxytetrahydrofuran-2-yl}methyl Sulfamate]
  IC50: 50 to 100 nM
read-out: Percent Inhibition
  inhibition at 0.111 µM: 53%

## Nc1ncnc2c1c(SC1CNC1)nn2[C@@H]1O[C@H](COS(N)(=O)=O)[C@@H](O)[C@H]1O [Compound I-72, {(2R,3S,4R,5R)-5-[4-amino-3-(azetidin-3-ylsulfanyl)-1H-pyrazolo[3,4-d]pyrimidin-1-yl]-3,4-dihydroxytetrahydrofuran-2-yl}methyl sulfamate]
  IC50: 50 to 100 nM
read-out: Percent Inhibition
  inhibition at 0.123 µM: 65%

## CC(C)c1nn([C@@H]2O[C@H](COS(N)(=O)=O)[C@@H](O)[C@H]2O)c2ncnc(N)c12 [Compound I-3, [(2R,3S,4R,5R)-5-(4-amino-3-isopropyl-1H-pyrazolo[3,4-d]pyrimidin-1-yl)-3,4-dihydroxytetrahydrofuran-2-yl]methyl Sulfamate]
  IC50: 100 to 500 nM
Concentration 0.069 μM, read-out: Percent Inhibition
  inhibition at 0.069 µM: 24%
